Experimental data reported in US20080280810A1, “PEPTIDES HAVING AFFINITY FOR BODY SURFACES” (priority 2006, published 2008).

Key:
[1] = Color retention after shampoo treatment, peptide as sealant with HC Blue 26 dye; design: species or system human; details: 0.50 wt % HC Blue 26, peptide 0.25 wt %, 90 min contact, after 6 shampoo treatments; dye alone 25.75
Description: The peptides used in this Example were prepared as described in Examples 1 and 2. The color retention was quantified using a spectrophotometric measurement technique. A peptide given as SEQ ID NO:41 or SEQ ID NO:42 (38 mg), produced via fermentation as described in Examples 1 and 2, was added to 15 g of an aqueous 0.50 wt % solution of HC Blue 26 (Aldrich) and the solution was allowed to stir for 1 h. A natural white hair tress (1 cm wide, potted, International Hair Importers & Products Inc., Bellerose, N.Y.) was inserted into a 15 mm×125 mm test tube and 13 mL of the peptide/dye mixture was injected into the test tube. The hair tress was immersed in contact with the colorant solution for 90 min and the colorant solution was agitated using a magnetic stirrer. The tress was removed, allowed to drip dry, and then air dried for 30 min. The hair tress was then subjected to a water rinse using copious amounts of deionized water, followed by a shampoo treatment with embrocation for 30 seconds. The shampoo treatment involved the application of Pantene Pro-V Sheer Volume shampoo (Proctor & Gamble, Cincinnati, Ohio) to the hair as follows. […] The color intensity after the shampoo was measured as described in Examples 4-7.

[2] = Co-application of multi-block peptide with semi-permanent dye (Arianor Ebony), color retention; design: species or system human; details: difference in Delta E between peptide sample and peptide free control after 3 embrocation cycles (about 12 manual shampoos); pH 8.5-9.0; >2 benefit, >4 substantial benefit
Description: A 0.5% aqueous solution of Arianor Ebony (Sensient Technologies Corp, Milwaukee, Wis.) containing 3% benzyl alcohol and 0.05% diazolidinyl urea (biocide) was prepared. Dye insolubles were removed by filtration and the pH of the dye solution was adjusted to 8.50-9.0, using ethanolamine.
Approximately 1 mL of the dye solution was added to selected wells of a 24-well plate (Thomson Instrument Co., Oceanside, Calif.; part # 931565). A multi-block peptide (see Table 12) was dissolved in a solution consisting of 3 wt % benzyl alcohol and 95 wt % water to yield a peptide concentration of 2 wt % or approximately 20 mg/mL. The pH was adjusted to 8.5-9.0 using ethanolamine. The peptide solution was then pipetted into test wells containing dye solution in the amount of 1 mL or 0.2 mL respectively. The total volume in each test well was then adjusted to 2 mL where necessary using 3% aqueous benzyl alcohol (pH adjusted to 8.5-9.0 with ethanolamine). Peptide free controls consisted of 1 mL of dye solution diluted to 2 mL with the pH adjusted aqueous benzyl alcohol solution.
Baseline […] readings were made on one inch long tresses (see below) using an X-RITE® SP78™ Sphere Spectrophotometer (X-Rite, Inc., Grandville, Mich.), by placing the hair tress into the photosensor and calculating L*, a* and b* parameters representing the photometer response. All measurements were the average of three individual determinations.
The tresses (potted on one end with resin) of natural white, 85% gray or regular bleached hair (International Hair Importers and Products, Bellerose, N.Y.) were immersed in the peptide/dye solution and the entire well plate was agitated on a VORTEX-GENIE® 2 Mixer (Scientific Industries, Bohemia, N.Y.) at a speed setting of 1 for 30 minutes. The tresses were removed from the wells, rinsed for 30 seconds under flowing deionized water and then air dried.
The following complement of beads was then added to each well containing a hair tress: (8 beads in all; 4 Novagen Coli Rollers Plating Beads—sterilized (EMD Biosciences, San Diego, Calif.; Catalog No. 71013), 2 BioSpec 6.35 mm glass beads (BioSpec Products, Bartlesville, Okla.; Catalog No. 11079635), and 2 BioSpec 3.2 mm Stainless Steel Bead (Catalog No. 11079132ss).
Then 2.5 mL of aqueous 50% Pantene Pro V® shampoo (Proctor & Gamble Co., Cincinnati, Ohio) was pipetted into each well. The plate was placed on a VWR® VX-2500 Multi-tube Vortexer (VWR, West Chester, Pa.) for 5 minutes to simulate shampooing with embrocation. The hair tresses were then rinsed under flowing deionized water and air dried. This cycle was repeated two more times except that the length of time was 10 minutes for both subsequent embrocation cycles. (This treatment was previously determined to simulate approximately 12 manual shampoo cycles.) At the conclusion of the third embrocation cycle L*, a* and b* values were measured and Delta E values (ΔE) were calculated using equation 1 below:
where L*=the lightness variable and a* and b* are the chromaticity coordinates of CIELAB colorspace as defined by the International Commission of Illumination (CIE) (Minolta, Precise Color Communication—Color Control From Feeling to Instrumentation, Minolta Camera Co., 1996).
The Delta E value (ΔE) indicates color retention relative to the non-dyed hair and larger Delta E values indicate better performance. Values listed in the table represent the difference in Delta E values between the peptide-containing sample and the peptide free control. This difference is indicative of color retention after shampoo or water rinse treatments and positive values indicate better performance relative to the peptide free controls (Table 12).

| Substance | Delta E [1] | ΔE Retention Ebony Dye with 85% Gray Hair [2] |
| --- | --- | --- |
| P-TPPELLHGAPRS-KRKRK-D (PTPPELLHGAPRSKRKRKD; Peptide having affinity for hair) [HC 71] | 27.83 | 2.9 |
| P-EQISGSLVAAPW-KRKRK-D (PEQISGSLVAAPWKRKRKD; Peptide having affinity for hair) [HC 74] | 30.36 | 7.5 |
